Consider two compounds from patent US8883771B2, “Bivalent inhibitors of IAP proteins and therapeutic methods using the same” (The Regents of the University of Michigan, priority 2012, dated 2014).

In one assay the test system is MDA-MB-231 xenograft. As to the kind of experiment: Antitumor activity in the MDA-MB-231 xenograft model in nude mice. In kind it is in vivo. Conditions: 3 mg/kg, weekly dose for 4 weeks (qwk×4, iv), start at average tumor volume 80 mm^3. On the procedure:
Treatments started when the tumors reached an average volume of 80 mm^3 Example 24 was given intravenously, weekly dose for 4 weeks (qwk×4, iv) at 10 mg/kg. Example 2 was given weekly dose for 4 weeks (qwk×4, iv) at 3 mg/kg. Control treatment was given vehicle control. Each group has 8-10 mice and each mouse has one tumor.

Assay [1] concerns the target XIAP linker-BIR2-BIR3 (residues 120-356) (Homo sapiens (Human), UniProt P98170). The assay is described as follows: Fluorescence polarization (FP) based competitive binding assay, XIAP linker-BIR2-BIR3. The following applies: FP competitive assay, Smac-1F probe; read-out: Binding Affinities IC50 (nM) XIAP Protein. How it is done: (§1) For cIAP-1 BIR3 and cIAP-2 BIR3 assays, a fluorescently labeled Smac mimetic (Smac-2F) was used as the fluorescent probe. The Kd values of Smac-2F to cIAP-1 BIR3 and cIAP-2 BIR3 were determined by monitoring the total fluorescence polarization of mixtures composed with the fluorescent probe at a fixed concentration and proteins with increasing concentrations up to full saturation. Fluorescence polarization values were measured using the Infinite M-1000 plate reader (Tecan U.S., Research Triangle Park, N.C.) in Microfluor 2 96-well, black, round-bottom plates (Thermo Scientific). To each well, 1 nM of SMAC-2F and increasing concentrations of protein were added to a final volume of 125 μl in the assay buffer (100 mM potassium phosphate, pH 7.5, 100 μg/ml bovine γ-globulin, 0.02% sodium azide, Invitrogen, with 4% DMSO). Plates were incubated at room temperature for 1-2 hours and mixed with gentle shaking to assure equilibrium. […] Equilibrium dissociation constants (Kd) were then calculated by fitting the sigmoidal dose-dependent FP increases as a function of protein concentrations using Graphpad Prism 5.0 software (Graphpad Software, San Diego, Calif.).
(§2) Mixtures of 5 μl of the tested compounds in DMSO and 120 μl of preincubated protein/tracer complex in the assay buffer (100 mM potassium phosphate, pH 7.5, 100 μg/ml bovine γ-globulin, 0.02% sodium azide, Invitrogen) were added into assay plates and incubated at room temperature for 2 hours with gentle shaking. Final concentrations of proteins and probes were 3 nM and 1 nM, 5 nM and 1 nM for assays for cIAP-1 BIR3 and cIAP-2 BIR3, respectively. […] FP values were measured as described above. IC50 values were determined by nonlinear regression fitting of the competition curves. The Ki values of competitive inhibitors were calculated using the derived equation described previously, based upon the measured IC50 values, the Kd values of the probe to different proteins, and the concentrations of the proteins and probes in the competitive assays.
The FP-based assay for XIAP linker-BIR2-BIR3 protein was performed with the same procedures. In this assay, a bivalent fluorescently tagged peptidic Smac mimetic (Smac-1F) was used as the fluorescent probe whose Kd value to XIAP linker-BIR2-BIR3 was determined similarly through the saturation experiments. 0.01% of Triton X-100 was added in the assay buffer to achieve stable fluorescence and polarization value of the dimeric fluorescent probe. Final protein and probe concentrations utilized in the competitive assay were 3 nM and 1 nM, respectively.

Assay [2] concerns the target cIAP1-BIR3 (residues 253-363) (Homo sapiens (Human), UniProt Q13490). The assay is described as follows: Fluorescence polarization (FP) based competitive binding assay, cIAP1-BIR3. Conditions: Smac-2F probe, read-out: Binding Affinities IC50 (nM) cIAP1 Protein. On the procedure:
as §1, §2

For assay [3], the target named is cIAP-2 BIR3 (residues 238-349) (Homo sapiens (Human), UniProt Q13489). The assay is described as follows: Fluorescence polarization (FP) based competitive binding assay, cIAP-2 BIR3. The following applies: FP competitive assay, Smac-2F probe; read-out: Binding Affinities IC50 (nM) cIAP2 Protein. On the procedure: as §1, §2
In assay [4] the test system is MDA-MB-231 breast cancer cell line. As to the kind of experiment: Inhibition of cell growth in MDA-MB-231 breast cancer cell line. In kind it is cell-based, human. Conditions: Homo sapiens, MDA-MB-231, MDA-MB-231 breast cancer cell line.
Assay [5] deals with SK-OV-3 ovarian cancer cell line. As to the kind of experiment: Inhibition of cell growth in SK-OV-3 ovarian cancer cell line. The class given is cell-based, human. Conditions: Homo sapiens, SK-OV-3, SK-OV-3 ovarian cancer cell line.

Regarding `CN[C@@H](C)C(=O)N[C@H]1CN(C(=O)Nc2ccc(NC(=O)N3CC[C@H]4CC[C@@H](C(=O)NC(c5ccccc5)c5ccccc5)N4C(=O)[C@@H](NC(=O)[C@H](C)NC)C3)cc2)CC[C@H]2CCC(C(=O)NC(c3ccccc3)c3ccccc3)N2C1=O` (stereo partly drawn) [Example 2], the “Antitumor activity (mean tumor volume)” value with MDA-MB-231 xenograft was “Tumor regression was achieved”.

On to `CN[C@@H](C)C(=O)N[C@H]1CN(C(=O)Nc2ccc(NC(=O)N3CC[C@H]4CC[C@@H](C(=O)N[C@@H]5CCC[C@@H]5c5ccccc5)N4C(=O)[C@@H](NC(=O)[C@H](C)NC)C3)cc2)CC[C@H]2CC[C@@H](C(=O)N[C@@H]3CCC[C@@H]3c3ccccc3)N2C1=O` [Example 34], for which the IC50 in assay [1] was < 1000 nM; in assay [2], < 1000 nM; in assay [3] it was < 1000 nM; in assay [4], < 100 nM; in assay [5], < 100 nM.
